# Assay results taken from patent US5789395A, “Method of using tetracycline compounds for inhibition of endogenous nitric oxide production” (The Research Foundation of State University of New York, priority 1996, dated 1998).
# Assays:
# [1] = tested on: β-actin; test: β-actin levels in LPS-activated RAW 264.7 cells (Western blot); assay type: cell-based, murine; details: 20-80 μg/mL
# Method: RAW 264.7 cells were activated with 100 ng/mL LPS for 16-18 h, with and without doxycycline or minocycline (20-80 μg/mL) or with hydrocortisone (10 μM). Cell-free extracts were prepared as described above. The extract s were analyzed for 133 kD iNOS by Western blotting, using specific anti-iNOS antibodies.
# Equal amounts of protein (25-50 μg) estimated by BCA reagent (Pierce, Rockford, Ill.) were loaded onto SDS-PAGE gels and stained to verify the concentrations of various protein fractions by examining the intensities of the protein bands on the gels. Western blot analysis was carried out from the same cell extracts. The Western-blotted membrane was probed with a specific anti-murine iNOS monoclonal antibody (Transduction Laboratories, Lexington, Ky.), as specified by the supplier. The same blot was also probed with an anti-actin antibody generously provided by Dr. James L. Lessard (Children's Hospital Medical Center, Cincinnati, Ohio). The blots were developed using the ECL Western blot system (Amersham, Arlington Heights, Ill.). Quantitation of the bands was performed using a densitometer from Molecular Dynamics (Sunnyvale, Calif.). FIG. 5 is representative.
# [2] = tested on: dog models of OA; details: prophylactic administration; Yu et al. (1992); cited from earlier work
# [3] = tested on: cartilage; details: 20-50 μg/mL; Cole et al. 1994; cited from earlier work
# [4] = tested on: gelatinase in ROS 17/2.8 osteoblastic cell line; details: Vernillo et al. 1993; cited from earlier work
# [5] = tested on: gelatinase in UMR 106-01 osteoblastic cell line; details: Vernillo et al. 1993; cited from earlier work
# [6] = tested on: collagenase; details: cited from earlier work
# [7] = tested on: patients with mild and moderate arthritis; details: Tilley et al. 1995; cited from earlier work
Compound,effect on the levels of β-actin synthesis [1],severity of OA [2],effect on proteoglycan loss and cell death [3],"IC50, gelatinase activity [4]","IC50, gelatinase activity [5]",anti-collagenase activity [6],safety and efficacy in arthritis [7]
C[C@H]1c2cccc(O)c2C(O)=C2C(=O)[C@]3(O)C(O)=C(C(N)=O)C(=O)[C@@H](N(C)C)[C@@H]3[C@@H](O)[C@@H]21 [doxycycline],no significant effect,markedly reduced the severity of OA,blocks proteoglycan loss and reduces the cell death associated with proteoglycan loss,20 to 30 µg/mL,> 200 µg/mL,inhibits collagenase activity via direct effects on the enzyme,–
CN(C)c1ccc(O)c2c1C[C@H]1C[C@H]3[C@H](N(C)C)C(O)=C(C(N)=O)C(=O)[C@@]3(O)C(O)=C1C2=O [minocycline],no significant effect,–,–,–,–,–,safe and effective for patients with mild and moderate arthritis
